Data reported in patent US20210301038A1, “POLYSIALIC ACID AND DERIVATIVES THEREOF, PHARMACEUTICAL COMPOSITION AND METHOD OF PRODUCING POLYSIALIC ACID” (Medizinische Hochschule Hannover (MHH), priority 2018, published 2021).

What was measured:
[1] = test system: CA3-CA1 synapses in slices from 5×FAD mice; experiment: LTP in CA3-CA1 synapses in slices from 5×FAD mice; type: cell-based, mouse; details: bath application 1 μg/ml (approx. 0.3 μM)
Experimental: (§1) LTP was induced by application of five trains of theta-burst stimulation (TBS) with an inter-theta-train interval of 20 s (Brennaman et al., 2011). Each train consisted of 8 bursts delivered at 5 Hz. Each burst consisted of four pulses delivered at 100 Hz. Duration of pulses was 0.2 ms. For calculation of the LTP level, the mean fEPSP slope was measured between 50-60 min after TBS delivery, and it was then normalized to mean baseline fEPSP slope during 0-10 min before TBS. Stimulus artifacts in representative fEPSP examples in figures were blanked to facilitate the perception of fEPSPs recorded in the mPFC. Recording and analysis of LTP in St8Sia4^−/− mice was performed in a blind manner.
Finally, we tested if DP12 would have an effect in the 5×FAD mouse model of AD associated with amyloidosis and upregulation of extracellular glutamate and signaling through extra synaptic GluN2B receptors. Using a special slice incubation chamber with improved oxygen supply, we were able to induce LTP in CA3-CA1 synapses in slices from 5×FAD mice (FIG. 8).

[2] = test system: mPFC slices of AAV-GFP-Tau[R406W] infected mice; experiment: mPFC LTP in mice overexpressing GFP-Tau[R406W]; type: cell-based, mouse; details: bath application of 0.3 μM DP12; 50-60 min after induction
Experimental: Prefrontal slices (400 μm) were transferred to a submerged-type recording MC membrane chamber (volume 2 ml; Scientific Systems Design Inc., Mississauga, Ontario, Canada) perfused with oxygenated recording ACSF at a flow rate of 4 ml/min and maintained at room temperature (22-25° C.), unless stated otherwise in the “Results”-section given below. Field EPSPs were evoked and recorded using thin-walled glass electrodes (borosilicate glass, wall thickness 0.188, length 100, and outer diameter 1.5 mm, Hilgenberg, Malsfeld, Germany) filled with recording aCSF in 400 μm-thick mPFC slices. […]
Before LTP induction, basal synaptic transmission was recorded in each slice and the relationship between stimulus intensity and fEPSP slope was measured. […] The supramaximal slope was determined by gradually increasing the stimulation intensity until a population spike in the fEPSP became first visible. […]
as §1, with “Each train consisted of 8 bursts delivered at 5 Hz. Each burst consisted of four pulses delivered at 100 Hz. Duration of pulses was 0.2 ms.” left out, “Recording and analysis of LTP in St8Sia4^−/− mice was performed in a blind manner.” left out

[3] = test system: AAV-GFP-Tau[R406W]-injected mice; experiment: Recency test in AAV-GFP-Tau[R406W]-injected mice; type: in vivo, mouse; details: intranasal delivery
Description: AAVs were produced using the AAV helper free packaging systems AAV-DJ (Cell Biolabs, Inc.). In short, HEK293 cells were transfected with the pAAV-DJ and pHelper constructs along with the viral expression constructs (pAAV vectors) encoding either eGFP or eGFP-Tau[R406W] under the control of a synapsin promotor. After three days, viruses were harvested using freeze-thaw cycles. After lysis, non-viral DNA is digested with Benzonase, and lysate is filtered through a 0.22 μm filter, washed with PBS and concentrated using Amicon Ultra-15 Centrifugal Filter Units with a cut off of 50 kDa. Titers were determined to be >10^10 GC/ml using quantitative Real-Time PCR with primers for the WPRE element in the viral genome.
For stereotaxic delivery of AAVs, mice were anesthetized in a closed chamber using isoflurane (1 ml for 30 s). […]
Animals were randomly assigned to treatment groups using a randomized block design to counterbalance differences in age. […] Novelty detection was evaluated by calculating the discrimination ratio as follows: [novel object time−familiar object time]/[novel object time+familiar object time]×100%. In the recency test, the discrimination ratio was calculated as follows: [least recent object time−most recent object time]/[least object time+most recent object time]×100%. […]

Substance: (α(2→8)Neu5Ac)12 [DP12]
- LTP levels 50-60 min after theta-burst stimulation [1]: strongly increased
- rescue of impaired mPFC LTP [2]: fully rescue LTP
- rescue of impaired recent object recognition [3]: fully rescued
